Experimental data taken from publication PMC4303209, “A novel phosphatidylinositol 3-kinase (PI3K) inhibitor directs a potent FOXO-dependent, p53-independent cell cycle arrest phenotype characterized by the differential induction of a subset of FOXO-regulated genes” (Breast Cancer Research : BCR, 2014).

Test system: MCF-7 breast cancer cells
Test: Microarray gene expression analysis (Agilent whole human genome 4 x 44K; compound vs DMSO, LIMMA log2 fold change)
Assay type: cell-based
Settings: cell cycle genes

Cn1ncc2c(N3CCOCC3)nc(-c3cccc(O)c3)nc21 [ETP-45658]
TRIAP1 log2FC (Gene 51499): -0.820 | DTL log2FC (Gene 51514): 0.044 | SIRT7 log2FC (Gene 51547): 0.404 | CINP log2FC (Gene 51550): -0.074 | GINS2 log2FC (Gene 51659): -0.721 | NUP54 log2FC (Gene 53371): 0.683 | PELO log2FC (Gene 53918): -0.595 | WNT4 log2FC (Gene 54361): -0.709 | ANLN log2FC (Gene 54443): 0.699 | FBXW5 log2FC (Gene 54461): -0.054 | FAM64A log2FC (Gene 54478): 0.090 | DDX4 log2FC (Gene 54514): -0.146 | BTG4 log2FC (Gene 54766): 0.249 | NDE1 log2FC (Gene 54820): 0.535 | NSUN2 log2FC (Gene 54888): -0.186 | TTC19 log2FC (Gene 54902): 0.753 | TXNL4B log2FC (Gene 54957): 0.617 | BANP log2FC (Gene 54971): -0.168 | AURKAIP1 log2FC (Gene 54998): -0.353 | PHIP log2FC (Gene 55023): 1.243 | USP47 log2FC (Gene 55031): 0.762 | ZWILCH log2FC (Gene 55055): 0.619 | PIWIL2 log2FC (Gene 55124): -0.029 | CEP192 log2FC (Gene 55125): 0.534 | CDCA8 log2FC (Gene 55143): -0.107 | RFWD3 log2FC (Gene 55159): -0.597 | CEP55 log2FC (Gene 55165): 1.059 | CENPQ log2FC (Gene 55166): 0.796 | RIF1 log2FC (Gene 55183): 0.443 | ARL8B log2FC (Gene 55207): 0.686 | RCBTB1 log2FC (Gene 55213): 0.799 | CCDC87 log2FC (Gene 55231): -0.125 | STEAP3 log2FC (Gene 55240): -0.569 | MNS1 log2FC (Gene 55329): 0.765 | MCM10 log2FC (Gene 55388): -0.683 | SMPD3 log2FC (Gene 55512): -0.280 | TRIM36 log2FC (Gene 55521): 0.705 | RBM38 log2FC (Gene 55544): -0.536 | PRR5 log2FC (Gene 55615): 0.335 | PRPF40A log2FC (Gene 55660): 1.175 | CEP72 log2FC (Gene 55722): 0.344 | CHFR log2FC (Gene 55743): -0.026 | NUP133 log2FC (Gene 55746): 0.409 | CCAR1 log2FC (Gene 55749): 0.836 | CDK5RAP2 log2FC (Gene 55755): 0.516 | PCID2 log2FC (Gene 55795): 0.322 | CENPN log2FC (Gene 55839): 0.469 | PPP2R2D log2FC (Gene 55844): 0.037 | HDAC8 log2FC (Gene 55869): -0.325 | PBK log2FC (Gene 55872): 0.522 | BIN3 log2FC (Gene 55909): -0.746 | ERBB2IP log2FC (Gene 55914): 1.051 | RCC2 log2FC (Gene 55920): -0.248 | KLHL9 log2FC (Gene 55958): 0.133 | TEX11 log2FC (Gene 56159): -0.066 | TDRD1 log2FC (Gene 56165): 0.246 | PARD3 log2FC (Gene 56288): 0.418 | RPRM log2FC (Gene 56475): -0.078 | CYP26B1 log2FC (Gene 56603): 0.090 | SPIRE1 log2FC (Gene 56907): 0.377 | SMARCAD1 log2FC (Gene 56916): 0.653 | PRDM9 log2FC (Gene 56979): 0.085 | KIF15 log2FC (Gene 56992): 1.353 | PDXP log2FC (Gene 57026): -1.027 | PCBP4 log2FC (Gene 57060): -0.519 | CASC5 log2FC (Gene 57082): 0.187 | PCNP log2FC (Gene 57092): 0.687 | NUP107 log2FC (Gene 57122): 0.862 | CHMP1B log2FC (Gene 57132): 0.826 | PAK7 log2FC (Gene 57144): 0.396 | CSRP2BP log2FC (Gene 57325): 0.412 | TTYH1 log2FC (Gene 57348): -0.189 | BIRC6 log2FC (Gene 57448): 0.155 | MTA3 log2FC (Gene 57504): 0.345 | HACE1 log2FC (Gene 57531): 0.593 | TAOK1 log2FC (Gene 57551): 0.386 | USP37 log2FC (Gene 57695): 0.513 | FANCM log2FC (Gene 57697): 0.486 | CCNB1IP1 log2FC (Gene 57820): 1.174 | RHOU log2FC (Gene 58480): 1.289 | OVOL2 log2FC (Gene 58495): -0.133 | AVPI1 log2FC (Gene 60370): 0.391 | RINT1 log2FC (Gene 60561): 0.804 | FAM111A log2FC (Gene 63901): 0.319 | DMRTC2 log2FC (Gene 63946): -0.047 | CLSPN log2FC (Gene 63967): 0.066 | TSPYL2 log2FC (Gene 64061): -0.073 | DPEP3 log2FC (Gene 64180): -0.246 | RFWD2 log2FC (Gene 64326): 0.063 | CENPH log2FC (Gene 64946): 0.860 | MRPL41 log2FC (Gene 64975): -0.545 | INTS3 log2FC (Gene 65123): -0.455 | PHACTR4 log2FC (Gene 65979): 0.399 | BOLL log2FC (Gene 66037): -0.038 | MIS12 log2FC (Gene 79003): -0.429 | CENPM log2FC (Gene 79019): -0.105 | NUP37 log2FC (Gene 79023): 0.431 | ZNF655 log2FC (Gene 79027): 0.893 | CENPO log2FC (Gene 79172): -0.787 | E2F8 log2FC (Gene 79733): 0.114 | FBXO31 log2FC (Gene 79791): -0.232 | CSPP1 log2FC (Gene 79848): 0.754 | NEK11 log2FC (Gene 79858): 0.568 | MAP9 log2FC (Gene 79884): 1.193 | NUP85 log2FC (Gene 79902): 0.292 | CEP76 log2FC (Gene 79959): 0.323 | CENPT log2FC (Gene 80152): -0.175 | DBF4B log2FC (Gene 80174): -0.579 | CEP290 log2FC (Gene 80184): 0.854 | CEP63 log2FC (Gene 80254): 0.741 | CDK5RAP3 log2FC (Gene 80279): -0.091 | CEP70 log2FC (Gene 80321): 0.756 | TUBB1 log2FC (Gene 81027): -0.436 | NDEL1 log2FC (Gene 81565): -0.111 | FAM83D log2FC (Gene 81610): -0.088 | CAB39L log2FC (Gene 81617): 0.106 | CCNL2 log2FC (Gene 81669): 0.230 | CABLES2 log2FC (Gene 81928): -0.937 | KIF18A log2FC (Gene 81930): 1.204 | SESN2 log2FC (Gene 83667): -0.701 | SETDB2 log2FC (Gene 83852): 1.285 | GSG2 log2FC (Gene 83903): -0.491 | RASSF4 log2FC (Gene 83937): 0.185 | MND1 log2FC (Gene 84057): 0.497 | HORMAD1 log2FC (Gene 84072): 0.519 | USP44 log2FC (Gene 84101): -0.061 | CEP78 log2FC (Gene 84131): 0.550 | GINS4 log2FC (Gene 84296): -0.398 | RAB11FIP4 log2FC (Gene 84440): 0.575 | LZTS2 log2FC (Gene 84445): 0.831 | BRSK1 log2FC (Gene 84446): -0.038 | SPIRE2 log2FC (Gene 84501): 0.454 | PARD6B log2FC (Gene 84612): 0.731 | PPP1R9B log2FC (Gene 84687): -0.425 | SPATA22 log2FC (Gene 84690): -0.013 | BEX2 log2FC (Gene 84707): 0.736 | PSRC1 log2FC (Gene 84722): 0.114 | KLHL22 log2FC (Gene 84861): 0.165 | TBRG1 log2FC (Gene 84897): 0.370 | MASTL log2FC (Gene 84930): 0.592 | LSM10 log2FC (Gene 84967): -1.152 | CCNB3 log2FC (Gene 85417): 0.077 | LRRCC1 log2FC (Gene 85444): 0.773 | DIXDC1 log2FC (Gene 85458): 0.062 | PNPT1 log2FC (Gene 87178): 0.445 | LMLN log2FC (Gene 89782): 0.783 | KLHL13 log2FC (Gene 90293): 0.112 | GADD45GIP1 log2FC (Gene 90480): -0.402 | SLFN11 log2FC (Gene 91607): -0.432 | CENPL log2FC (Gene 91687): 0.066 | CABLES1 log2FC (Gene 91768): 1.627 | SYCE1 log2FC (Gene 93426): -0.072 | ACTR8 log2FC (Gene 93973): 0.366 | TP53INP1 log2FC (Gene 94241): 0.920 | CDCA5 log2FC (Gene 113130): 0.030 | TUBGCP5 log2FC (Gene 114791): 0.520
